Laboratory results reported in US9475789B2, “Use of polyenylpyrrole derivatives for treating inflammation” (WELLHEAD BIOLOGICAL TECHNOLOGY CORP., priority 2014, dated 2016).
Entries after “also recorded” stand apart in the source; their conditions may differ.

Columns and labels:
Format in all cases: cell-based, murine
[1] = tested on: RAW 264.7 cells; assay: AlamarBlue assay for cell viability; conditions: Mus musculus, RAW264.7, cytotoxicity against RAW 264.7 cells, 24 h treatment
Protocol: RAW 264.7 cells were seeded at a density of 5000 cells in 100 μl RPMI 1640 medium with 10% heat-inactivated FBS per well in 96-well flat-bottom plates and incubated for 24 h at 37° C. in a 5% CO2 incubator. Cells were incubated with tested samples for 24 h and the AlamarBlue® assay was used to determine the cytotoxicity of the test samples. The procedure was conducted following the protocol described in the manufacture's instruction (AbD Serotec Ltd).
The aim of this study is to identify non-toxic polyenylpyrrole derivatives which can be used as anti-inflammatory agents. Compounds 1a-n were evaluated for their cytotoxicities against the murine macrophages cell line RAW 264.7 after 24 h treatment.

[2] = tested on: LPS-induced NO generation in RAW 264.7 macrophages; assay: NO inhibitory assay (Griess reaction) in LPS-activated macrophages; conditions: for EC50: Mus musculus, RAW264.7, 50% inhibition of the LPS-induced NO generation, RAW 264.7, LPS 1 μg/ml, 24 h, read-out: ED50 (the source's name); for production of NO by LPS-activated cells: RAW 264.7, LPS 1 μg/ml 24 h, Griess reaction; for background level of NO: compound alone, no LPS, RAW 264.7, data not shown
Protocol: In (A) and (C), cells (5×10^5/ml) were incubated with polyenylpyrrole derivatives or DMSO (vehicle) for 30 min followed by stimulating with LPS (1 μg/ml) for 24 h, then NO (A), IL-6 and TNF-α (C) concentration in culture medium were assayed by Griess reaction and ELISA, respectively. In (B), cells (5×10^5/ml) were pretreated with polyenylpyrrole derivatives or DMSO for 30 min followed by stimulating with LPS (1 μg/ml) for 24 h, then the protein expression of iNOS and COX-2 were assayed by Western blot. […] RAW 264.7 cells were seeded in 24-well plates at a density of 5×10^5 cells/ml, and then incubated with or without LPS (1 μg/ml) in the absence or presence of tested samples for 24 h. The effects of the tested samples on NO production were measured indirectly by analysis of nitrite levels using the Griess reaction.

[3] = tested on: ROS; assay: Intracellular ROS production, LPS-activated RAW 264.7 macrophages; conditions: compound 1h 20 μM, NAC 10 mM, 30 min before LPS
Protocol: In (A), RAW 264.7 macrophages (5×10^5/ml) were incubated with compound 1h (20 μM), N-acetyl cysteine (NAC; 10 mM) or DMSO (vehicle) for 30 min followed by LPS (1 μg/ml) stimulating for the indicated time, then ROS levels were measured by detection of the fluorescence intensity of the fluorophore carboxyl-DCF and expressed relative to those at time zero. In (B), RAW 264.7 macrophages (5×10^5/ml) were incubated with compound 1h (20 μM) or DMSO for 30 min followed by LPS (1 μg/ml) stimulating for 0-60 min, then the phosphorylation levels of ERK1/2, JNK1/2, p38 were analyzed by Western blot. In (C), J774A.1 macrophages (5×10^5/ml) were incubated with compound 1h or DMSO for 30 min followed by LPS (1 μg/ml) stimulating for 20 min, then the phosphorylation levels of ERK1/2, JNK1/2, p38 were analyzed by Western blot.
Intracellular ROS stimulated by LPS was measured by detecting the fluorescence intensity of the 2′,7′-dichlorofluorescein diacetate (H2DCFDA) oxidized product (DCF) (Molecular Probes, Eugene, Oreg.). […] The relative fluorescence intensity of fluorophore DCF, formed by peroxide oxidation of the non-fluorescent precursor, was detected at an excitation wavelength of 485 nm and an emission wavelength of 530 nm with a microplate absorbance reader (Bio-Rad Laboratories, Inc).

[4] = tested on: iNOS; assay: Western blot of iNOS protein in LPS-activated RAW 264.7 macrophages; conditions: LPS-activated RAW 264.7, compared with vehicle
Protocol: (§1) In (A) and (C), cells (5×10^5/ml) were incubated with polyenylpyrrole derivatives or DMSO (vehicle) for 30 min followed by stimulating with LPS (1 μg/ml) for 24 h, then NO (A), IL-6 and TNF-α (C) concentration in culture medium were assayed by Griess reaction and ELISA, respectively. In (B), cells (5×10^5/ml) were pretreated with polyenylpyrrole derivatives or DMSO for 30 min followed by stimulating with LPS (1 μg/ml) for 24 h, then the protein expression of iNOS and COX-2 were assayed by Western blot.
(§2) Whole cell lysates were separated by SDS-PAGE and electrotransferred to a PVDF membrane. The membranes were incubated in blocking solution—5% nonfat milk in phosphate buffered saline with 0.1% Tween 20—at room temperature for 1 h. Each membrane was incubated with a specific primary antibody at room temperature for 2 h. After washing three times in PBS with 0.1% Tween 20, the membrane was incubated with an HRP-conjugated secondary antibody directed against the primary antibody. The membrane was developed by an enhanced chemiluminescence Western blot detection system.

[5] = tested on: COX-2; assay: Western blot of COX-2 protein in LPS-activated RAW 264.7 macrophages
Protocol: as §1, §2

[6] = tested on: IL-6; assay: IL-6 ELISA, RAW 264.7 macrophages; conditions: for secretion of IL-6: LPS-activated RAW 264.7, LPS 1 μg/ml 24 h; for background level of IL-6: compound alone, no LPS, data not shown
Protocol: (§3) The effects of tested samples on IL-1β, TNF-α and IL-6 production were measured by ELISA according to the manufacturer's instruction. In brief, 50 μl of biotinylated antibody reagent and 50 μl of supernatant were added to an anti-mouse IL-1β, TNF-α and IL-6 precoated stripwell plate, and incubated at room temperature for 2 h. After washing the plate three times with washing buffer, 100 μl of diluted streptavidin-HRP concentrate was added to each well and incubated at room temperature for 30 min. The washing process was repeated; then 100 μl of a premixed tetramethylbenzidine substrate solution was added to each well and developed at room temperature in the dark for 30 min. Following the addition of 100 μl of stop solution to each well to stop the reaction, the absorbance of the plate was measured by a microplate reader at 450 nm wavelength.

[7] = tested on: TNF-α; assay: TNF-α ELISA, RAW 264.7 macrophages; conditions: for TNF-α secretion: LPS-activated RAW 264.7, LPS 1 μg/ml 24 h; for background level of TNF-α: compound alone, no LPS, data not shown
Protocol: as §1, §3

| EC50 [2] | Structure (SMILES) | IC50 [1] | LPS-stimulated ROS production [3] | production of NO by LPS-activated cells [2] | background level of NO [2] | expression of iNOS protein [4] | COX-2 expression [5] | secretion of IL-6 [6] | background level of IL-6 [6] | TNF-α secretion [7] | background level of TNF-α [7] |
| --- | --- | --- | --- | --- | --- | --- | --- | --- | --- | --- | --- |
| 29 ± 6 µM | COc1cc(/C=C/C=C/C=C/C=C/c2sccc2Cl)oc(=O)c1 [Compound 1j] | > 100 µM | – | – | – | – | – | – | – | – | – |
| – | CC(=O)N[C@@H](CS)C(=O)O [N-acetyl cysteine, reference compound] | – | reduced ROS production | – | – | – | – | – | – | – | – |
| 18 ± 3 µM | COc1cc(/C=C/C=C/C=C/C=C/c2ccccc2Cl)oc(=O)c1C [Compound 1l] | > 100 µM | – | – | – | – | – | – | – | – | – |
| 17 ± 2 µM | COc1cc(/C=C/C=C/C=C/C=C/c2c(Cl)ccn2S(C)(=O)=O)oc(=O)c1C [Compound 1n] | > 100 µM | – | decreased production; also recorded: decreased the production of NO by LPS-activated cells in a dose-dependent manner | did not alter | decreased production; also recorded: reduced the expression of iNOS protein | did not affect | decreased production; also recorded: decreased the secretion of IL-6 by LPS-activated RAW 264.7 macrophages in a dose-dependent manner | did not alter | slight reduced by compounds 1h, 1i and 1n, but not significantly | did not alter |
| 16 ± 2 µM | Cc1c(O)cc(/C=C/C=C/C=C/C=C/c2[nH]ccc2Cl)oc1=O [Compound 1i] | > 100 µM | – | decreased production; also recorded: decreased the production of NO by LPS-activated cells in a dose-dependent manner | did not alter | decreased production; also recorded: reduced the expression of iNOS protein | did not affect | decreased production; also recorded: decreased the secretion of IL-6 by LPS-activated RAW 264.7 macrophages in a dose-dependent manner | did not alter | slight reduced by compounds 1h, 1i and 1n, but not significantly | did not alter |
| 18 ± 2 µM | COc1cc(/C=C/C=C/C=C/C=C/c2sccc2Cl)oc(=O)c1C [Compound 1k] | > 100 µM | – | – | – | – | – | – | – | – | – |
| 26 ± 3 µM | COc1cc(/C=C/C=C/C=C/C=C/c2cccc(Cl)c2)oc(=O)c1C [Compound 1m] | > 100 µM | – | – | – | – | – | – | – | – | – |
